Results: US20260364184A1, “COMPOUND BASED ON OXOISOINDOLINYL-SUBSTITUTED TETRAHYDROPYRIMIDINE-DIONE AND USE THEREOF” (GLUETACS THERAPEUTICS (SHANGHAI) CO., LTD., priority 2023, published 2026)

Key:
Format in all cases: cell-based
[1] = test system: Human Multiple myeloma cell line (MM.1S); test: Inhibition of MM.1S cell proliferation (CellTiter luminescent viability); details: 96 hours; for IC50: Table IA1, IRAK4 inhibitor-based, read-out: Inhibitory activity (IC50, nM) on tumor cell proliferation, MM.1S; for inhibition at 0.01 µM / inhibition at 0.5 µM: Homo sapiens, MM1.S, Table IA5, IRAK4 inhibitor-based; for inhibition at 0.01 µM: 10 nM, read-out: Inhibition Rate at 10 nM (%); for inhibition at 0.5 µM: 500 nM, read-out: Inhibition Rate at 500 nM (%)
Method in brief: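 Cells are seeded in 96-well plates, cultured at 37 °C, 5% CO2, and treated next day with 5-fold serial compound dilutions (stock series from 2000 μM; 0.5 μL into 100 μL medium). Viability is read by CellTiter-Meiluncell luminescence after the set exposure, and IC50 is taken from growth-inhibition curves.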

[2] = test system: Human T lymphocytic leukemia cell line (Jurkat); test: Inhibition of Jurkat cell proliferation (CellTiter luminescent viability); details: 96 hours; for IC50: Table IA1, IRAK4 inhibitor-based, read-out: Inhibitory activity (IC50, nM) on tumor cell proliferation, Jurkat; for inhibition at 0.01 µM / inhibition at 0.5 µM: Homo sapiens, Table IF3, AR inhibitor-based; for inhibition at 0.01 µM: 10 nM, read-out: Inhibition Rate at 10 nM (%); for inhibition at 0.5 µM: 500 nM, read-out: Inhibition Rate at 500 nM (%)
[3] = target: T1, AR (Homo sapiens, UniProt P10275); test: Western blot degradation of AR; details: LnCap Cell; 24 hours
T1 construct: expression of target proteins in cells; endogenous in cells
T1 sequence (P10275 1-920): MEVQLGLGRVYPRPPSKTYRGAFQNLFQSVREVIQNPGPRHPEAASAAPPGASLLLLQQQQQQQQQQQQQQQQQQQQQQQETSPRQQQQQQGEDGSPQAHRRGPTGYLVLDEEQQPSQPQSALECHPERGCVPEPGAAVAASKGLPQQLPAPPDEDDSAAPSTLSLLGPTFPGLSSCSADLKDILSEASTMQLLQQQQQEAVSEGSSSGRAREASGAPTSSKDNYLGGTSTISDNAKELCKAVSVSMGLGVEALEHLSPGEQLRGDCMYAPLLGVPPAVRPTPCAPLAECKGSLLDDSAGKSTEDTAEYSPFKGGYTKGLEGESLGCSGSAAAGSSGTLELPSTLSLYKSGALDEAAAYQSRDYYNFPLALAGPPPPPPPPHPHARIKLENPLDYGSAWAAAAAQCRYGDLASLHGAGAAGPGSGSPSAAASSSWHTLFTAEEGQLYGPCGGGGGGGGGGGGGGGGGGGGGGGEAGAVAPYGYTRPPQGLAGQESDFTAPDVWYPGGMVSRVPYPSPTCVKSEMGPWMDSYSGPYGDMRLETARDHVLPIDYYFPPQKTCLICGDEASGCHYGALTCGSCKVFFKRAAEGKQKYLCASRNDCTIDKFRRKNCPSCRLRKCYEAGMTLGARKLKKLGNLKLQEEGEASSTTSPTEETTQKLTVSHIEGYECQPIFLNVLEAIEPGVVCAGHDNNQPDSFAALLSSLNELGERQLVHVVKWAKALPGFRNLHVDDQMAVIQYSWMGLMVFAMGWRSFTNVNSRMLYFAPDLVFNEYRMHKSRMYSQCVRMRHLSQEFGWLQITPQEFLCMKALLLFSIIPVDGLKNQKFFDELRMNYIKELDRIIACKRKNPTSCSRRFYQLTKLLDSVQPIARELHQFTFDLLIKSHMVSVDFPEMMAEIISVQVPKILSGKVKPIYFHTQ
Method in brief: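 Compound-treated cells harvested; lysates denatured 5 min at 95 °C, run on SDS-PAGE, blotted to NC membrane, blocked 1 h RT, probed with antibodies. Densitometry vs DMSO → DC50; target normalised to internal control → % remaining, degradation = 1 − remaining.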

[4] = Inhibition of RPMI-8226 cell proliferation (CellTiter luminescent viability); details: Homo sapiens; Table IA4, IRAK4 inhibitor-based; RPMI-8226, 10 nM, 96 hours; read-out: Inhibition Rate at 10 nM (%)
[5] = test system: Human B-Cell Lymphoma Cells (RPMI-8226); test: as above; details: Table IA4, IRAK4 inhibitor-based, RPMI-8226, 500 nM, 96 hours, read-out: Inhibition Rate at 500 nM (%)

`O=C1CCN(N2Cc3cc(CN4CCC(n5cc(NC(=O)c6coc(-c7ccnc(NCC8CC8)c7)n6)c(C(F)F)n5)CC4)ccc3C2=O)C(=O)N1` [GT-04951, 2-(2-((cyclopropylmethyl)amino)pyridin-4-yl)-N-(3-(difluoromethyl)-1-(1-((2-(2,4-dioxotetrahydropyrimidin-1(2H)-yl)-1-oxoisoindolin-5-yl)methyl)piperidin-4-yl)-1H-pyrazol-4-yl) oxazole-4-carboxamide] gave an IC50 [1] of 10 to 50 nM and an IC50 [2] of 100 to 300 nM.

In the case of `O=C1CCN(N2Cc3cc(CN4CCC(n5cc(NC(=O)c6cnn7ccc(N8C[C@H]9C[C@@H]8CO9)nc67)c(C(F)F)n5)CC4)ccc3C2=O)C(=O)N1` [GT-05028, 5-((1R,4R)-2-oxa-5-azabicyclo[2.2.1]heptan-5-yl)-N-(3-(difluoromethyl)-1-(1-((2-(2,4-dioxotetrahydropyrimidin-1(2H)-yl)-1-oxoisoindolin-5-yl)methyl)piperidin-4-yl)-1H-pyrazol-4-yl)pyrazolo[1,5-a]pyrimidine-3-carboxamide], the IC50 [1] is reported as 10 to 50 nM and the IC50 [2] is reported as 100 to 300 nM.

With `N#Cc1ccc(O[C@H]2CC[C@H](NC(=O)c3ccc(N4CCC(CN5C[C@@H]6C[C@H]5CN6c5ccc6c(c5)C(=O)N(N5CCC(=O)NC5=O)C6=O)CC4)nn3)CC2)cc1Cl` [GT-05226, N-((1r,4r)-4-(3-chloro-4-cyanophenoxy)cyclohexyl)-6-(4-(((1S,4S)-5-(2-(2,4-dioxotetrahydropyrimidin-1(2H)-yl)-1,3-dioxoisoindolin-5-yl)-2,5-diazabicyclo[2.2.1]heptan-2-yl)methyl)piperidin-1-yl)pyridazine-3-carboxamide] the “Degradation of substrate protein AR (substrate protein remaining %)” value (from here on “Degradation … (substrate protein remaining %)”) [3] was “A (0%≤substrate protein remaining %≤80%)”.

`O=C1CCN(N2C(=O)c3ccc(N4C5CC4CN(C[C@H]4CC[C@H](n6cc(NC(=O)c7cnn8ccc(N9C[C@H]%10C[C@@H]9CO%10)nc78)c(C(F)F)n6)CC4)C5)cc3C2=O)C(=O)N1` [GT-05242, 5-((1R,4R)-2-oxa-5-azabicyclo[2.2.1]heptan-5-yl)-N-(3-(difluoromethyl)-1-((1r,4R)-4-((6-(2-(2,4-dioxotetrahydropyrimidin-1(2H)-yl)-1,3-dioxoisoindolin-5-yl)-3,6-diazabicyclo[3.1.1]heptan-3-yl)methyl)cyclohexyl)-1H-pyrazol-4-yl)pyrazolo[1,5-a]pyrimidine-3-carboxamide] gave an inhibition at 0.01 µM [4] of 20 to 25% and an inhibition at 0.5 µM [5] of 30 to 40%.

Molecule `O=C1CCN(N2C(=O)c3cccc(N4CCC(CN5CCC(n6cc(NC(=O)c7cnn8ccc(N9C[C@H]%10C[C@@H]9CO%10)nc78)c(C(F)F)n6)CC5)CC4)c3C2=O)C(=O)N1` [GT-05285, 5-((1R,4R)-2-oxa-5-azabicyclo[2.2.1]heptan-5-yl)-N-(3-(difluoromethyl)-1-(1-((1-(2-(2,4-dioxotetrahydropyrimidin-1(2H)-yl)-1,3-dioxoisoindolin-4-yl)piperidin-4-yl)methyl)piperidin-4-yl)-1H-pyrazol-4-yl)pyrazolo[1,5-a]pyrimidine-3-carboxamide] has an inhibition at 0.01 µM [1] of 40 to 60%, an inhibition at 0.5 µM [1] of 60 to 80% and an inhibition at 0.01 µM [4] of 30 to 40%. For the same molecule, the inhibition at 0.5 µM [5] was 25 to 30%.

Molecule `CC(C)(O)c1cc2nc(C3CCN(Cc4ccc5c(c4)CN(N4CCC(=O)NC4=O)C5=O)CC3)oc2cc1NC(=O)c1cccc(C(F)(F)F)n1` [GT-05748, N-(2-(1-((2-(2,4-dioxotetrahydropyrimidin-1(2H)-yl)-1-oxoisoindolin-5-yl)methyl)piperidin-4-yl)-5-(2-hydroxypropan-2-yl)benzo[d]oxazol-6-yl)-6-(trifluoromethyl) picolinamide] has an inhibition at 0.01 µM [4] of 30 to 40% and an inhibition at 0.5 µM [5] of 15 to 20%.

For `O=C1CCN(N2Cc3cc(CN4CCC(n5cc(NC(=O)c6cnn7ccc(N8CCOCC8)nc67)c(C(F)F)n5)CC4)ccc3C2=O)C(=O)N1` [GT-05749], the inhibition at 0.01 µM [1] was 20 to 25%, the inhibition at 0.5 µM [1] was 80 to 100% and the inhibition at 0.01 µM [4] was 25 to 30%. For the same molecule, the inhibition at 0.5 µM [5] was 15 to 20%.

In the case of `N#Cc1ccc(O[C@H]2CC[C@H](NC(=O)c3ccc(N4CCC(CN5CC6CCC5CN6c5ccc6c(c5)C(=O)N(N5CCC(=O)NC5=O)C6=O)CC4)nn3)CC2)cc1Cl` (some centres unmarked) [GT-05832, N-((1r,4r)-4-(3-chloro-4-cyanophenoxy)cyclohexyl)-6-(4-((5-(2-(2,4-dioxotetrahydropyrimidin-1(2H)-yl)-1,3-dioxoisoindolin-5-yl)-2,5-diazabicyclo[2.2.2]octan-2-yl)methyl)piperidin-1-yl)pyridazine-3-carboxamide], the “Degradation … (substrate protein remaining %)” value [3] is reported as “A (0%≤substrate protein remaining %≤80%)”, the inhibition at 0.01 µM [2] is reported as 0 to 5% and the inhibition at 0.5 µM [2] is reported as 20 to 30%.

In the case of `CC1(C)[C@H](NC(=O)c2ccc(N3CCC(CN4CC5CCC4CN5c4ccc5c(c4)C(=O)N(N4CCC(=O)NC4=O)C5=O)CC3)nc2)C(C)(C)[C@H]1Oc1ccc(C#N)c(Cl)c1` (some centres unmarked) [GT-05834, N-((1r,3r)-3-(3-chloro-4-cyanophenoxy)-2,2,4,4-tetramethylcyclobutyl)-6-(4-((5-(2-(2,4-dioxotetrahydropyrimidin-1(2H)-yl)-1,3-dioxoisoindolin-5-yl)-2,5-diazabicyclo[2.2.2]octan-2-yl)methyl)piperidin-1-yl)nicotinamide], the “Degradation … (substrate protein remaining %)” value [3] is reported as “A (0%≤substrate protein remaining %≤80%)”, the inhibition at 0.01 µM [2] is reported as 15 to 20% and the inhibition at 0.5 µM [2] is reported as 40 to 60%.
